Test results reported in US10363257B2 (ZENITH EPIGENETICS LTD., priority 2013, dated 2019).
pIC50: −log10 of the molar value.

Key:
c-myc = assay: Inhibition of c-myc expression (mRNA, real-time PCR) in MV4-11 cells; assay type: cell-based; conditions: Human AML MV4-11 cells, 3 h, cMYC mRNA
Protocol: MV4-11 cells (CRL-9591) were plated at a density of 2.5×10^4 cells per well in 96 well U-bottom plates and treated with increasing concentrations of test compound or DMSO (0.1%) in IMDM media containing 10% FBS and penicillin/streptomycin, and incubated for 3 h at 37° C. Triplicate wells were used for each concentration. Cells were pelleted by centrifugation and harvested using the mRNA Catcher PLUS kit according to manufacturer's instructions. The eluted mRNA isolated was then used in a one-step quantitative real-time PCR reaction, using components of the RNA UltraSense™ One-Step Kit (Life Technologies) together with Applied Biosystems TaqMan® primer-probes for cMYC and Cyclophilin. Real-time PCR plates were run on a VIaTM7 real time PCR machine (Applied Biosystems), data was analyzed, normalizing the Ct values for cMYC to an internal control, prior to determining the fold expression of each sample, relative to the control.

human AML MV-4-11 cells = assay: Inhibition of cell proliferation in MV4-11 cells (CellTiter Aqueous One); assay type: cell-based; conditions: MV4-11, 72 h
Protocol: MV4-11 cells: 96-well plates were seeded with 5×10^4 cells per well of exponentially growing human AML MV-4-11 (CRL-9591) cells and immediately treated with two-fold dilutions of test compounds, ranging from 30 μM to 0.2 μM. Triplicate wells were used for each concentration, as well as a media only and three DMSO control wells. The cells and compounds were incubated at 37° C., 5% CO2 for 72 h before adding 20 μL of the CellTiter Aqueous One Solution (Promega) to each well and incubating at 37° C., 5% CO2 for an additional 3-4 h. The absorbance was taken at 490 nm in a spectrophotometer and the percentage of proliferation relative to DMSO-treated cells was calculated after correction from the blank well. IC50 were calculated using the GraphPad Prism software.

[1] = target: T1, Brd4 bromodomain 1 (BRD4(1)) (Homo sapiens, UniProt O60885); assay: Inhibition of tetra-acetylated histone H4 binding to Brd4 bromodomain 1 (TR-FRET); conditions: tetra-acetylated histone H4 peptide, first bromodomain of Brd4
T1 construct: made in house; host or cells: E. coli BL21(DE3)
Protocol: Proteins were cloned and overexpressed with a N-terminal 6× His tag, then purified by nickel affinity followed by size exclusion chromatography. Briefly, E.coli BL21(DE3) cells were transformed with a recombinant expression vector encoding N-terminally Nickel affinity tagged bromodomains from Brd2, Brd3, Brd4. Cell cultures were incubated at 37° C. with shaking to the appropriate density and induced overnight with IPTG. The supernatant of lysed cells was loaded onto Ni-IDA column for purification. Eluted protein was pooled, concentrated and further purified by size exclusion chromatography. Fractions representing monomeric protein were pooled, concentrated, aliquoted, and frozen at −80° C. for use in subsequent experiments.
Binding of tetra-acetylated histone H4 and BET bromodomains was confirmed by a Time Resolved Fluorescence Resonance Energy Transfer (TR-FRET) method. N-terminally His-tagged bromodomains (200 nM) and biotinylated tetra-acetylated histone H4 peptide (25-50 nM, Millipore) were incubated in the presence of Europium Cryptate-labeled streptavidin (Cisbio Cat. #610SAKLB) and XL665-labeled monoclonal anti-His antibody (Cisbio Cat. #61HISXLB) in a white 96 well microtiter plate (Greiner). For inhibition assays, serially diluted test compound was added to these reactions in a 0.2% final concentration of DMSO. Final buffer concentrations were 30 mM HEPES pH 7.4, 30 mM NaCl, 0.3 mM CHAPS, 20 mM phosphate pH 7.0, 320 mM KF, 0.08% BSA). After a 2-h incubation at room temperature, the fluorescence by FRET was measured at 665 and 620 nm by a SynergyH4 plate reader (Biotek). The binding inhibitory activity was shown by a decrease in 665 nm fluorescence relative to 620 nm. IC50 values were determined from a dose response curve.

For Cc1noc(C)c1-c1cc(N2CC(O)C2)c2nc(C)n(Cc3ccccc3)c2c1 [compound 197, 1-(1-benzyl-6-(3,5-dimethylisoxazol-4-yl)-2-methyl-1H-benzo[d]imidazol-4-yl)azetidin-3-ol], the pIC50 (c-myc) was ≥ 6.52, the pIC50 (human AML MV-4-11 cells) was ≥ 6.52 and the pIC50 [1] was ≥ 6.52.
For Cc1noc(C)c1-c1cc([N+](=O)[O-])c2[nH]c(=O)n(C(C)c3ccccc3)c2c1 (stereo not drawn) [compound 110, 6-(3,5-dimethylisoxazol-4-yl)-4-nitro-1-(1-phenylethyl)-1H-benzo[d]imidazol-2(3H)-one], the pIC50 (c-myc) was 5.52 to 6.52, the pIC50 (human AML MV-4-11 cells) was 5.52 to 6.52 and the pIC50 [1] was ≥ 6.52.
In the case of Cc1noc(C)c1-c1cc([N+](=O)[O-])c2nc(C)n([C@H](C)c3ccccc3)c2c1 [compound 126, (R)-3,5-dimethyl-4-(2-methyl-4-nitro-1-(1-phenylethyl)-1H-benzo[d]imidazol-6-yl)isoxazole], the pIC50 (c-myc) was ≥ 6.52, the pIC50 (human AML MV-4-11 cells) was 5.52 to 6.52 and the pIC50 [1] was ≥ 6.52.
In the case of Cc1noc(C)c1-c1cnc2nc(N3CCNCC3)n(Cc3ccccc3)c2c1 [compound 213, 4-(1-benzyl-2-(piperazin-1-yl)-1H-imidazo[4,5-b]pyridin-6-yl)-3,5-dimethylisoxazole], the pIC50 (c-myc) was 5.52 to 6.52, the pIC50 (human AML MV-4-11 cells) was 5.52 to 6.52 and the pIC50 [1] was ≥ 6.52.
For Cc1noc(C)c1-c1cnc2nc(C3CC3)n(Cc3ccccc3)c2c1 [compound 138, 4-(1-benzyl-2-cyclopropyl-1H-imidazo[4,5-b]pyridin-6-yl)-3,5-dimethylisoxazole], the pIC50 (c-myc) was ≥ 6.52, the pIC50 (human AML MV-4-11 cells) was 5.52 to 6.52 and the pIC50 [1] was ≥ 6.52.
For Cc1noc(C)c1-c1cc(S(C)(=O)=O)c2nc(C)n(Cc3ccccc3)c2c1 [compound 168, 4-(1-benzyl-2-methyl-4-(methylsulfonyl)-1H-benzo[d]imidazol-6-yl)-3,5-dimethylisoxazole], the pIC50 (c-myc) was 5.52 to 6.52, the pIC50 (human AML MV-4-11 cells) was 5.52 to 6.52 and the pIC50 [1] was ≥ 6.52.
Cc1noc(C)c1-c1cnc2[nH]c(=O)n(Cc3ccc(Cl)s3)c2c1 [compound 124, 1-((5-chlorothiophen-2-yl)methyl)-6-(3,5-dimethylisoxazol-4-yl)-1H-imidazo[4,5-b]pyridin-2(3H)-one] was tested, and the pIC50 (c-myc) was 5.52 to 6.52, the pIC50 (human AML MV-4-11 cells) was 5.52 to 6.52 and the pIC50 [1] was ≥ 6.52.
CCNc1nc2c(N)cc(-c3c(C)noc3C)cc2n1CC1CC1 [compound 160, 1-(cyclopropylmethyl)-6-(3,5-dimethylisoxazol-4-yl)-N2-ethyl-1H-benzo[d]imidazole-2,4-diamine] was tested, and the pIC50 (c-myc) was 5.52 to 6.52, the pIC50 (human AML MV-4-11 cells) was 5.52 to 6.52 and the pIC50 [1] was ≥ 6.52.
For Cc1noc(C)c1-c1cc([N+](=O)[O-])c2[nH]c(=O)n([C@@H](C)c3ccccc3)c2c1 [compound 172, (S)-6-(3,5-dimethylisoxazol-4-yl)-4-nitro-1-(1-phenylethyl)-1H-benzo[d]imidazol-2(3H)-one], the pIC50 (c-myc) was ≥ 6.52, the pIC50 (human AML MV-4-11 cells) was 5.52 to 6.52 and the pIC50 [1] was ≥ 6.52.
Cc1noc(C)c1-c1cc(O)c2nc(C)n(Cc3ccccc3)c2c1 [compound 173, 1-benzyl-6-(3,5-dimethylisoxazol-4-yl)-2-methyl-1H-benzo[d]imidazol-4-ol] was tested, and the pIC50 (c-myc) was ≥ 6.52, the pIC50 (human AML MV-4-11 cells) was 5.52 to 6.52 and the pIC50 [1] was ≥ 6.52.
For Cc1noc(C)c1-c1cnc2nc(NCc3ccccn3)n(Cc3ccccc3)c2c1 [compound 194, 1-benzyl-6-(3,5-dimethylisoxazol-4-yl)-N-(pyridin-2-ylmethyl)-1H-imidazo[4,5-b]pyridin-2-amine], the pIC50 (c-myc) was ≥ 6.52, the pIC50 (human AML MV-4-11 cells) was ≥ 6.52 and the pIC50 [1] was ≥ 6.52.
In the case of COc1ccc(CNc2nc3ncc(-c4c(C)noc4C)cc3n2Cc2ccccc2)cc1 [compound 205, 1-benzyl-6-(3,5-dimethylisoxazol-4-yl)-N-(4-methoxybenzyl)-1H-imidazo[4,5-b]pyridin-2-amine], the pIC50 (c-myc) was 5.52 to 6.52, the pIC50 (human AML MV-4-11 cells) was 5.52 to 6.52 and the pIC50 [1] was ≥ 6.52.
Cc1noc(C)c1-c1cnc2nc(C)n(Cc3ccccc3)c2c1C [compound 181, 4-(1-benzyl-2,7-dimethyl-1H-imidazo[4,5-b]pyridin-6-yl)-3,5-dimethylisoxazole] was tested, and the pIC50 (c-myc) was ≥ 6.52, the pIC50 (human AML MV-4-11 cells) was 5.52 to 6.52 and the pIC50 [1] was ≥ 6.52.
In the case of Cc1noc(C)c1-c1cc([N+](=O)[O-])c2nc(C)n([C@@H](C)c3ccccc3)c2c1 [compound 125, (S)-3,5-dimethyl-4-(2-methyl-4-nitro-1-(1-phenylethyl)-1H-benzo[d]imidazol-6-yl)isoxazole], the pIC50 (c-myc) was ≥ 6.52, the pIC50 (human AML MV-4-11 cells) was 5.52 to 6.52 and the pIC50 [1] was ≥ 6.52.
For Cc1oncc1-c1cc(N)c2nc(C)n(Cc3ccccc3)c2c1 [compound 201, 1-benzyl-2-methyl-6-(5-methylisoxazol-4-yl)-1H-benzo[d]imidazol-4-amine], the pIC50 (c-myc) was 5.52 to 6.52, the pIC50 (human AML MV-4-11 cells) was 5.52 to 6.52 and the pIC50 [1] was ≥ 6.52.
Cc1noc(C)c1-c1cnc2nc(NC3CCOCC3)n(Cc3ccccc3)c2c1 [compound 170, 1-benzyl-6-(3,5-dimethylisoxazol-4-yl)-N-(tetrahydro-2H-pyran-4-yl)-1H-imidazo[4,5-b]pyridin-2-amine] was tested, and the pIC50 (c-myc) was ≥ 6.52, the pIC50 (human AML MV-4-11 cells) was ≥ 6.52 and the pIC50 [1] was ≥ 6.52.
Cn1nccc1-c1cnc2nc(NC3CCOCC3)n(Cc3ccccc3)c2c1 [compound 176, 1-benzyl-6-(1-methyl-1H-pyrazol-5-yl)-N-(tetrahydro-2H-pyran-4-yl)-1H-imidazo[4,5-b]pyridin-2-amine] was tested, and the pIC50 (c-myc) was 5.52 to 6.52, the pIC50 (human AML MV-4-11 cells) was 5.52 to 6.52 and the pIC50 [1] was 5.52 to 6.52.
For Cn1nccc1-c1cnc2[nH]c(=O)n(Cc3ccccc3)c2c1 [compound 171, 1-benzyl-6-(1-methyl-1H-pyrazol-5-yl)-1H-imidazo[4,5-b]pyridin-2(3H)-one], the pIC50 (c-myc) was 5.52 to 6.52, the pIC50 (human AML MV-4-11 cells) was 5.52 to 6.52 and the pIC50 [1] was 5.52 to 6.52.
Cc1noc(C)c1-c1cnc2nc(NCc3ccncc3)n(Cc3ccccc3)c2c1 [compound 169, 1-benzyl-6-(3,5-dimethylisoxazol-4-yl)-N-(pyridin-4-ylmethyl)-1H-imidazo[4,5-b]pyridin-2-amine] was tested, and the pIC50 (c-myc) was ≥ 6.52, the pIC50 (human AML MV-4-11 cells) was ≥ 6.52 and the pIC50 [1] was ≥ 6.52.
CCOc1nc2c(NC(C)=O)cc(-c3c(C)noc3C)cc2n1Cc1ccccc1 [compound 120, N-(1-benzyl-6-(3,5-dimethylisoxazol-4-yl)-2-ethoxy-1H-benzo[d]imidazol-4-yl)acetamide] was tested, and the pIC50 (c-myc) was 5.52 to 6.52, the pIC50 (human AML MV-4-11 cells) was 5.52 to 6.52 and the pIC50 [1] was ≥ 6.52.
In the case of COCCNc1nc2c(N)cc(-c3c(C)noc3C)cc2n1Cc1ccccc1 [compound 139, 1-benzyl-6-(3,5-dimethylisoxazol-4-yl)-N2-(2-methoxyethyl)-1H-benzo[d]imidazole-2,4-diamine], the pIC50 (c-myc) was ≥ 6.52, the pIC50 (human AML MV-4-11 cells) was ≥ 6.52 and the pIC50 [1] was ≥ 6.52.
Cc1noc(C)c1-c1cnc2[nH]c(=O)n([C@@H](C)c3ccccc3)c2c1 [compound 219, (S)-6-(3,5-dimethylisoxazol-4-yl)-1-(1-phenylethyl)-1H-imidazo[4,5-b]pyridin-2(3H)-one] was tested, and the pIC50 (c-myc) was 5.52 to 6.52, the pIC50 (human AML MV-4-11 cells) was 5.52 to 6.52 and the pIC50 [1] was 5.52 to 6.52.
CCc1nc2ncc(-c3c(C)noc3C)cc2n1Cc1ccccc1 [compound 128, 4-(1-benzyl-2-ethyl-1H-imidazo[4,5-b]pyridin-6-yl)-3,5-dimethylisoxazole] was tested, and the pIC50 (c-myc) was 5.52 to 6.52, the pIC50 (human AML MV-4-11 cells) was 5.52 to 6.52 and the pIC50 [1] was ≥ 6.52.
Cc1noc(C)c1-c1cnc2nc(N3CCCC3)n(Cc3ccccc3)c2c1 [compound 195, 4-(1-benzyl-2-(pyrrolidin-1-yl)-1H-imidazo[4,5-b]pyridin-6-yl)-3,5-dimethylisoxazole] was tested, and the pIC50 (c-myc) was ≥ 6.52, the pIC50 (human AML MV-4-11 cells) was ≥ 6.52 and the pIC50 [1] was ≥ 6.52.
